# Reference: patent US20230303599A1, “PRODRUGS OF PHOSPHONAMIDE NUCLEOTIDE ANALOGUES AND THEIR PHARMACEUTICAL USE” (priority 2020, published 2023)
# What was measured:
# [1] = Cytotoxicity assay in primary human hepatocytes (PHHs); type: cell-based; conditions: HBV-infected primary human hepatocytes, HBV-infected PHH, Cell Titer Glo, average of at least two independent experiments
# Procedure: Example 107: Cytotoxicity Assay in Primary Human Hepatocytes (PHHs)
# The HBV-infected primary human hepatocytes are seeded (20K cells/well in 80 uL of Media) in 384well collagen coated plates pre-spotted with compounds. After 5 days, 40 ul of cell supernatant is removed to quantify HBV DNA levels as described in Example 106. Then, 40 ul Cell Titer Glo Reagent (Promega Catalog Number: G7572) is added to the remaining cells and luminescence is measured on the EnVision microplate reader.
# [2] = Cytotoxicity assay in MT-4 cells; type: cell-based; conditions: human, uninfected MT-4 cells, average of at least two independent experiments, read-out: MT4 CC50
# Procedure: Compounds were tested in a high-throughput 384-well assay format for their ability to inhibit the replication of HIV-1 (IIIB) in MT-4 cells. Compounds were serially diluted (1:3) in DMSO on 384-well polypropylene plates and further diluted 200-fold into complete RPMI media (10% FBS, 1% P/S) using the Biotek Micro Flow and Labcyte ECHO acoustic dispenser. Each plate contained up to 8 test compounds, with negative (no drug) and positive (5 μM AZT) controls. MT-4 cells were pre-treated with 10 μL of either RPMI (mock-infected) or a fresh 1:250 dilution of HIV-1 IIIB concentrated virus stock. Infected and uninfected MT-4 cells were further diluted in complete RPMI media and added to each plate using a Micro Flow dispenser. After 5 days incubation in a humidified and temperature-controlled incubator (37° C.), Cell Titer Glo (Promega) was added to the assay plates and chemiluminescence read using an Envision plate-reader. EC50 values were defined as the compound concentration that causes a 50% decrease in luminescence signal and were calculated using a sigmoidal dose-response model to generate curve fits and are shown in Table 1.
# Example 105: Cytotoxicity Assay in MT-4 Cells
# Assays were performed as described in Example 104 except uninfected MT-4 cells were added to each well containing test compound. In addition, 10 μM puromycin was added to the last column of each assay plate to assess a base level of cytotoxicity.
# [3] = Kinetic solubility analysis; type: physicochemical; conditions: 1× PBS, 24.2 °C, aqueous buffer, kinetic from dmso stock; pH 7.4 PBS, 1% DMSO, 24-hour incubation at ambient temperature
# Procedure: Example 108: Kinetic Solubility Analysis
# Buffer Preparation: 0.1 N HCl: Hydrochloric acid, 0.1 N standardized solution (MP Biomedicals part number 199569). 1×PBS, pH 7.4: Phosphate Buffered Saline (PBS) solution 10× (Fisher Bioreagent part number BP399-500) 50 mL was added to approximately 450 mL HPLC grade H2O. The volume of the solution was then adjusted to 500 mL for a total dilution factor of 1:10 and a final PBS concentration of 1×.
# The final DMSO concentration was 1.0% (v/v) and maximum theoretical compound concentration is 100 μM (for compound stock concentration of 10 mM). The filter plate was sealed. Following 24-hour incubation at ambient temperature (24.2-27.5° C.), the samples were vacuum filtered and the filtrates were collected in a 96 well polypropylene plate for analysis. The collection plate was sealed for analysis. Filtrates were injected into the Antek 8060 chemiluminescent nitrogen detector for quantification. The results are reported in μM.
# The filtrates were quantified with respect to this calibration curve. Each calculated solubility value was corrected for background nitrogen present in the DMSO and in the medium used to prepare the sample. All reported values for compounds containing adjacent nitrogen atoms in a ring structure were increased by approximately 25%.
Structure (SMILES),CC50 at 5 days [1] [µM],CC50 at 5 days [2] [µM],solubility kinetic at 24 h [3] [µg/mL]
"C[C@H](Cn1cnc2c(N)ncnc21)OCP(=O)(NC(C)(C)C(=O)OCc1ccccc1)NC(C)(C)C(=O)OCc1ccccc1 [Example 3, Dibenzyl 2,2′-(((((1-(6-amino-9H-purin-9-yl)propan-2-yl)oxy)methyl)phosphoryl)bis(azanediyl))(R)-bis(2-methylpropanoate)]",> 0.1,4.46,50
CCC[C@H]1CC[C@H](OC(=O)C(C)(C)NP(=O)(CO[C@H](C)Cn2cnc3c(N)ncnc32)NC(C)(C)C(=O)O[C@H]2CC[C@H](CCC)CC2)CC1 [Example 27],> 0.1,–,1
"C[C@H](Cn1cnc2c(N)ncnc21)OCP(=O)(NC(C)(C)C(=O)OC1CCC2(CCCC2)CC1)NC(C)(C)C(=O)OC1CCC2(CCCC2)CC1 (stereo partly drawn) [Example 61, Di(spiro[4.5]decan-8-yl) 2,2′-(((((1-(6-amino-9H-purin-9-yl)propan-2-yl)oxy)methyl)phosphoryl)bis(azanediyl))(R)-bis(2-methylpropanoate)]",> 0.1,6,< 1
"CCCCCCCCCCCC(=O)Nc1ncnc2c1ncn2C[C@@H](C)OCP(=O)(NC(C)(C)C(=O)OCCCCCC)NC(C)(C)C(=O)OCCCCCC [Example 30, Dihexyl 2,2′-(((((1-(6-dodecanamido-9H-purin-9-yl)propan-2-yl)oxy)methyl)phosphoryl)bis(azanediyl))(R)-bis(2-methylpropanoate)]",> 0.1,–,< 1
"CCCCCCOC(=O)C(C)(C)NP(=O)(CO[C@H](C)Cn1cnc2c(NC(=O)OCCOC(=O)c3ccccc3)ncnc21)NC(C)(C)C(=O)OCCCCCC [Example 94, Dihexyl 2,2′-(((((1-(6-(((2-(benzoyloxy)ethoxy)carbonyl)amino)-9H-purin-9-yl)propan-2-yl)oxy)methyl)phosphoryl)bis(azanediyl))(R)-bis(2-methylpropanoate)]",> 0.1,8.22,2
"CCCCCCOC(=O)C(C)(C)NP(=O)(CO[C@H](C)Cn1cnc2c(N)ncnc21)NC(C)(C)C(=O)OCC12CC(C1)C2 (stereo partly drawn) [Example 77, Bicyclo[1.1.1]pentan-1-ylmethyl 2-((((((R)-1-(6-amino-9H-purin-9-yl)propan-2-yl)oxy)methyl)((1-(hexyloxy)-2-methyl-1-oxopropan-2-yl)amino)phosphoryl)amino)-2-methylpropanoate]",> 0.1,> 50,57
"CCCCCCCOC(=O)C(C)(C)NP(=O)(CO[C@H](C)Cn1cnc2c(N)ncnc21)NC(C)(C)C(=O)OCCCCCCC [Example 66, Diheptyl 2,2′-(((((1-(6-amino-9H-purin-9-yl)propan-2-yl)oxy)methyl)phosphoryl)bis(azanediyl))(R)-bis(2-methylpropanoate)]",> 0.1,4.77,–
"CCCCCCOC(=O)C(C)(C)NP(=O)(CO[C@H](C)Cn1cnc2c(NC(=O)OCCC)ncnc21)NC(C)(C)C(=O)OCCCCCC [Example 31, Dihexyl 2,2′-(((((1-(6-((propoxycarbonyl)amino)-9H-purin-9-yl)propan-2-yl)oxy)methyl)phosphoryl)bis(azanediyl))(R)-bis(2-methylpropanoate)]",> 0.1,9.01,12
"CCCCCOC(=O)C(C)(C)NP(=O)(CO[C@H](C)Cn1cnc2c(N)ncnc21)NC(C)(C)C(=O)OCCCCC [Example 4, Dipentyl 2,2′-(((((1-(6-amino-9H-purin-9-yl)propan-2-yl)oxy)methyl)phosphoryl)bis(azanediyl))(R)-bis(2-methylpropanoate)]",> 0.1,8.42,53
"CCCCCCOC(=O)C(CC)(CC)NP(=O)(CO[C@H](C)Cn1cnc2c(N)ncnc21)NC(CC)(CC)C(=O)OCCCCCC [Example 65, Dihexyl 2,2′-(((((1-(6-amino-9H-purin-9-yl)propan-2-yl)oxy)methyl)phosphoryl)bis(azanediyl))(R)-bis(2-ethylbutanoate)]",> 0.1,6.71,–
"C[C@H](Cn1cnc2c(N)ncnc21)OCP(=O)(NC(C)(C)C(=O)OCC12CCC(CC1)C2)NC(C)(C)C(=O)OCC12CCC(CC1)C2 [Example 87, Bis(bicyclo[2.2.1]heptan-1-ylmethyl) 2,2′-(((((1-(6-amino-9H-purin-9-yl)propan-2-yl)oxy)methyl)phosphoryl)bis(azanediyl))(R)-bis(2-methylpropanoate)]",> 0.1,5.05,< 1
"CCCCCCOC(=O)C(C)(C)NP(=O)(CO[C@H](C)Cn1cnc2c(NC(=O)OCC(C)(C)C(=O)OCc3oc(=O)oc3C)ncnc21)NC(C)(C)C(=O)OCCCCCC [Example 98, Dihexyl 2,2′-(((((1-(6-(((2,2-dimethyl-3-((5-methyl-2-oxo-1,3-dioxol-4-yl)methoxy)-3-oxopropoxy)carbonyl)amino)-9H-purin-9-yl)propan-2-yl)oxy)methyl)phosphoryl)bis(azanediyl))(R)-bis(2-methylpropanoate)]",–,24.5,7
"C[C@H](Cn1cnc2c(N)ncnc21)OCP(=O)(NC(C)(C)C(=O)OCCC12CC(C1)C2)NC(C)(C)C(=O)OCCC12CC(C1)C2 [Example 62, Bis(2-(bicyclo[1.1.1]pentan-1-yl)ethyl) 2,2′-(((((1-(6-amino-9H-purin-9-yl)propan-2-yl)oxy)methyl)phosphoryl)bis(azanediyl))(R)-bis(2-methylpropanoate)]",> 0.1,3.19,< 1
"CCCCCCOC(=O)C(C)(C)NP(=O)(CO[C@H](C)Cn1cnc2c(N)ncnc21)NC1(C(=O)OCCCCCC)CCC1 (stereo partly drawn) [Example 18, Hexyl 1-((((((R)-1-(6-amino-9H-purin-9-yl)propan-2-yl)oxy)methyl)((1-(hexyloxy)-2-methyl-1-oxopropan-2-yl)amino)phosphoryl)amino)cyclobutane-1-carboxylate]",–,6.57,22
"CC(C)COC(=O)C(C)(C)NP(=O)(CO[C@H](C)Cn1cnc2c(N)ncnc21)NC(C)(C)C(=O)OCC(C)C [Example 35, Diisobutyl 2,2′-(((((1-(6-amino-9H-purin-9-yl)propan-2-yl)oxy)methyl)phosphoryl)bis(azanediyl))(R)-bis(2-methylpropanoate)]",–,4.35,54
